Read-outs that look alike come from different tables or passages of the source.
Legend:
[1] = target: T1, folate receptors (FRs) on KB cells (Homo sapiens, UniProt P15328); assay: Relative affinity assay (3H-folic acid competition) on KB cells; assay type: binding; settings: folic acid = 1; in 10% serum/FDRPMI
T1 construct: FR-positive KB cells are heavily seeded into 24-well cell culture plates; endogenous in cells; host or cells: KB cells
Description: METHOD. Relative Affinity Assay. The affinity for folate receptors (FRs) relative to folate is determined according to a previously described method (Westerhof, G. R., J. H. Schornagel, et al. (1995) Mol. Pharm. 48: 459-471) with slight modification. Briefly, FR-positive KB cells are heavily seeded into 24-well cell culture plates and allowed to adhere to the plastic for 18 h. Spent incubation media is replaced in designated wells with folate-free RPMI (FFRPMI) supplemented with 100 nM ^3H-folic acid in the absence and presence of increasing concentrations of test article or folic acid. Cells are incubated for 60 min at 37° C. and then rinsed 3 times with PBS, pH 7.4. Five hundred microliters of 1% SDS in PBS, pH 7.4, is added per well. Cell lysates are then collected and added to individual vials containing 5 mL of scintillation cocktail, and then counted for radioactivity. Negative control tubes contain only the ^3H-folic acid in FFRPMI (no competitor). Positive control tubes contain a final concentration of 1 mM folic acid, and CPMs measured in these samples (representing non-specific binding of label) are subtracted from all samples.

KB cells (FR+) = assay type: cell-based, Human
Description: METHOD. Inhibition of Cellular DNA Synthesis. The compounds described herein are evaluated using an in vitro cytotoxicity assay that predicts the ability of the drug to inhibit the growth of folate receptor-positive cells, such as KB cells, RAW264.7 macrophages, and the like. It is to be understood that the choice of cell type can made on the basis of the susceptibility of those selected cells to the drug that forms the conjugate. The test compounds are comprised of folate linked to a respective chemotherapeutic drug, as prepared according to the processes described herein. The test cells are exposed to varying concentrations of folate-drug conjugate, and also in the absence or presence of at least a 100-fold excess of folic acid to assess activity as being specific to folate receptor mediation.
EXAMPLE. Conjugates of cytotoxic drugs described herein are active against KB cells. The activity is mediated by the folate receptor as indicated by competition experiments using co-administered folic acid. KB cells are exposed for up to 7 h at 37° C. to the indicated concentrations of folate-drug conjugate in the absence or presence of at least a 100-fold excess of folic acid. The cells are then rinsed once with fresh culture medium and incubated in fresh culture medium for 72 hours at 37° C. Cell viability was assessed using a ^3H-thymidine incorporation assay.
METHOD. In vitro activity against various cancer cell lines. IC50 values are generated for various cell lines. Cells are heavily seeded in 24-well Falcon plates and allowed to form nearly confluent monolayers overnight. Thirty minutes prior to the addition of the test compound, spent medium is aspirated from all wells and replaced with fresh folate-deficient RPMI medium (FFRPMI). A subset of wells are designated to receive media containing 100 μM folic acid. The cells in the designated wells are used to determine the targeting specificity. Without being bound by theory it is believed herein that the cytotoxic activity produced by test compounds in the presence of excess folic acid, i.e. where there is competition for FR binding, corresponds to the portion of the total activity that is unrelated to FR-specific delivery. Following one rinse with 1 mL of fresh FFRPMI containing 10% heat-inactivated fetal calf serum, each well receives 1 mL of medium containing increasing concentrations of test compound (4 wells per sample) in the presence or absence of 100 μM free folic acid as indicated. Treated cells are pulsed for 2 h at 37° C., rinsed 4 times with 0.5 mL of media, and then chased in 1 mL of fresh medium up to 70 h. Spent medium is aspirated from all wells and replaced with fresh medium containing 5 μCi/mL ^3H-thymidine. Following a further 2 h 37° C. incubation, cells are washed 3 times with 0.5 mL of PBS and then treated with 0.5 mL of ice-cold 5% trichloroacetic acid per well. After 15 min, the trichloroacetic acid is aspirated and the cell material solubilized by the addition of 0.5 mL of 0.25 N sodium hydroxide for 15 min. A 450 μL aliquot of each solubilized sample is transferred to a scintillation vial containing 3 mL of Ecolume scintillation cocktail and then counted in a liquid scintillation counter. Final results are expressed as the percentage of ^3H-thymidine incorporation relative to untreated controls.

KB tumors = assay: Inhibition of tumor growth, s.c. KB tumors in nu/nu mice; assay type: in vivo; set-up: key to In vivo activity (e): CR = complete response, where tumor volume, as defined herein, during the observation period was zero for all test animals in the group
Description: METHOD. Inhibition of Tumor Growth in Mice. […] For tumor cell inoculation, 1×10^6 M109 cells (a syngeneic lung carcinoma) in Balb/c strain, or 1×10^6 KB cells in nu/nu strain, in 100 μL are injected in the subcutis of the dorsal medial area (right axilla).
METHOD. Toxicity as Measured by Weight Loss. The percentage weight change of the test animals is determined on selected days post-tumor inoculation (PTI), and during dosing. The results are graphed.

[2] = Cytotoxicity of unconjugated tubulysins to cells in culture; assay type: cell-based; settings: cells in culture (cell line not given); read-out: typical IC50, cytotoxic to cells in culture
[3] = Pharmacokinetic biodistribution of 3H-EC1669 and 3H-methotrexate; assay type: in vivo, Balb/c mice
Description: METHOD. Pharmacokinetic biodistribution. Studies in this section included a minimum of 3 test animals (mice) per time point. The pharmacokinetic biodistribution of test compound, such as ^3H-EC1669 (label on the drug), compared to positive control, such as ^3H-methotrexate (^3H-MTX), is observed in female Balb/c mice on folate-deficient diet. Compounds are administered as a single subcutaneous (SC) injection at 500 nmol/kg. Whole blood (>300 μL) along with ˜100 mg each of various tissues of interests are collected at various time points (such as 10 min, 30 min, 1 h, 2 h, 4 h, 8 h, 12 h, 24 h, and 72 h). The blood samples are placed in BD microtainer tubes (heparin) and centrifuged (4,000 g×3 min, 4° C.) to separate plasma (>100 μL). The remaining red blood cell (RBC) mass is washed 2× with phosphate buffered saline (PBS, pH 7.4) to obtain RBCs. The collected tissues are weighed and processed to determine ^3H-EC1669 and ^3H-MTX distribution: plasma, RBC, heart, lung, liver (the smallest lobe), spleen, kidney (1), intestine (above cecum), fecal material (from colon), muscle, and brain.

[4] = Renal/hepatic secretion study; assay type: in vivo, mice; settings: 24 h post-dose, s.c.
Description: In a subsequent renal/hepatic secretion study, mice are housed in metabolic cages with a 6-h fast before subcutaneous administration of ^3H-EC1669 or ^3H-MTX. At 24 h post-dose, ˜14% more radioactivity is found in the pooled urine of ^3H-EC1669 dosed animals than in ^3H-MTX dosed animals. In contrast, twice as much radioactivity was found in the pooled feces of ^3H-MTX dosed animals than in EC1669 dosed animals. […] MTX reportedly causes hepatotoxicity as a major side effect, especially after long-term use. Without being bound by theory, it is believed herein that the preferential renal clearance of the compounds described herein will lead to fewer side effects such as hepatotoxicity.

[5] = test system: KB-CR2000 (cisplatin resistant) tumors; assay: Cisplatin-resistant KB-CR2000 tumor model; assay type: in vivo, mice; settings: cisplatin 3 mg/kg twice per week, 2 weeks
[6] = 1.0 μmol/kg (only 2 doses due to toxicity), TIW, 2 weeks
[7] = 10 min post-dose, 500 nmol/kg s.c.

T1 sequence (P15328 25-234): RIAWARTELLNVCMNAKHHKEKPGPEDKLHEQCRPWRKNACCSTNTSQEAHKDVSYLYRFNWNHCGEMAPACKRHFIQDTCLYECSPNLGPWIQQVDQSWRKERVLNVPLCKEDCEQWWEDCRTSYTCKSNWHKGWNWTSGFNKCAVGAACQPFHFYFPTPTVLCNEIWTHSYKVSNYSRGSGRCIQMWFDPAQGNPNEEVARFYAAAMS

Compound: CCCC(=O)OCN(C(=O)[C@@H](NC(=O)[C@H]1CCCCN1C)C(C)CC)C(C[C@@H](OC(C)=O)c1nc(C(=O)N[C@@H](Cc2ccc(O)cc2)C[C@H](C)C(=O)NNC(=O)OCCSSC[C@@H](NC(=O)[C@@H](CC(=O)O)NC(=O)[C@H](CC(=O)O)NC(=O)[C@H](CCCNC(=N)N)NC(=O)[C@H](CC(=O)O)NC(=O)CC[C@H](NC(=O)c2ccc(NCc3cnc4nc(N)[nH]c(=O)c4n3)cc2)C(=O)O)C(=O)O)cs1)C(C)C (stereo partly drawn) [EC1549]
- Relative Affinity (a) compared to folic acid [1]: 0.90
- In vitro specificity (fold) (d) (KB cells (FR+); IC50 competed group vs non-competed group): 78 fold
- IC50 (KB cells (FR+); IC50 for test compound when competed with excess folic acid, read-out: 50% competition (nM) (c)): 350 nM
- IC50 (KB cells (FR+); as determined by thymidine incorporation, read-out: In vitro IC50 (nM) (b)): 4.5 nM
- In vivo activity (e) (KB tumors; subcutaneous KB tumor in nu/nu mice): CR

Compound: CCCC(=O)OCN(C(=O)[C@@H](NC(=O)[C@H]1CCCCN1C)C(C)CC)[C@H](C[C@@H](OC(C)=O)c1nc(C(=O)N[C@@H](Cc2ccc(O)cc2)C[C@H](C)C(=O)NN)cs1)C(C)C (stereo partly drawn) [TubB-H, reference compound]
- IC50 [2]: ~1 nM
- CR (KB tumors; [6]): 0%
- Cures (KB tumors; [6]): 0%
- PR (KB tumors; [6]): 0%
- Toxicity: Avg. Weight Loss (KB tumors; [6]): >15%
- Toxicity: Deaths (KB tumors; [6]): 20%

Compound: N=c1[nH]c(N)nc2ncc(CNc3ccc(C(=O)N[C@@H](CCC(=O)NNC(=O)OCCSSC[C@@H](NC(=O)[C@H](CCC(=O)NC[C@H](O)[C@@H](O)[C@H](O)[C@H](O)CO)NC(=O)[C@@H](CCC(=O)O)NC(=O)[C@H](CCC(=O)NC[C@H](O)[C@@H](O)[C@H](O)[C@H](O)CO)NC(=O)[C@@H](CCC(=O)O)NC(=O)[C@H](CCC(=O)NC[C@H](O)[C@@H](O)[C@H](O)[C@H](O)CO)NC(=O)CC[C@H](NC(=O)c4ccc(NCc5cnc6nc(N)[nH]c(=O)c6n5)cc4)C(=O)O)C(=O)O)C(=O)O)cc3)nc12 [^3H-EC1669]
- tissue uptake at 10 min ([3]; female, Balb/c, mouse, plasma, sc, total radioactivity, 10 min post-dose, 500 nmol/kg s.c., read-out: found in the plasma): 12 %ID/g
- more radioactivity in pooled urine than in 3H-MTX dosed animals [4]: ~14%

Compound: CN(Cc1cnc2nc(N)nc(N)c2n1)c1ccc(C(=O)N[C@@H](CCC(=O)O)C(=O)O)cc1 [^3H-MTX, ^3H-methotrexate]
- captured by the liver [3, 7]: 31 % ID/g
- found in the plasma [3, 7]: 5.2 % ID/g
- retention in RBCs, spleen, liver, intestine, and feces ([3]; entire sampling period): consistently higher than that of ^3H-EC1669
- radioactivity in pooled feces vs EC1669 dosed animals [4]: twice as much

Compound: N.N.[Cl][Pt][Cl] [cisplatin, reference compound]
- partial response (PR) [5]: did not produce even a single partial response
